# Data as given in ChEMBL document CHEMBL4834415, “Distinct Lugdunins from a New Efficient Synthesis and Broad Exploitation of Its MRSA-Antimicrobial Structure” (2021).
# Test system: Staphylococcus aureus
# Test: Antibacterial activity against methicillin-resistant Staphylococcus aureus USA300 LAC assessed as reduction in bacterial growth incubated for 21 hrs by broth dilution method
# Assay type: functional
row,Structure (SMILES),MIC [µM]
1,CC(C)C[C@H]1NC(=O)[C@H](Cc2c[nH]cn2)NC(=O)[C@@H](C(C)C)NC(=O)[C@@H]2CSC(N2)[C@H](C(C)C)NC(=O)[C@@H](C(C)C)NC(=O)[C@H](C(C)C)NC1=O,136
2,CC(C)C[C@H]1NC(=O)[C@@H]2CSC(N2)[C@H](C(C)C)NC(=O)[C@@H](Cc2c[nH]c3ccccc23)NC(=O)[C@H](C(C)C)NC(=O)[C@@H](CC(C)C)NC(=O)[C@H](Cc2c[nH]c3ccccc23)NC1=O,113
3,CC(C)C[C@H]1NC(=O)[C@H](Cc2ccco2)NC(=O)[C@@H](C(C)C)NC(=O)[C@@H]2CSC(N2)[C@H](C(C)C)NC(=O)[C@@H](C(C)C)NC(=O)[C@H](C(C)C)NC1=O,136
4,CC(C)[C@@H]1NC(=O)[C@@H](Cc2c[nH]c3ccccc23)NC(=O)[C@H](C(C)C)NC(=O)[C@@H](Cc2ccccc2)NC(=O)[C@H](Cc2c[nH]c3ccccc23)NC(=O)[C@@H](C(C)C)NC(=O)[C@@H]2CSC1N2,111
5,CC(C)C[C@H]1NC(=O)[C@H](Cc2ccc(-c3ccccc3)cc2)NC(=O)[C@@H](C(C)C)NC(=O)[C@@H]2CSC(N2)[C@H](C(C)C)NC(=O)[C@@H](C(C)C)NC(=O)[C@H](C(C)C)NC1=O,30.5
6,CC(C)C[C@H]1NC(=O)[C@H](Cc2ccc(O)cc2)NC(=O)[C@@H](C(C)C)NC(=O)[C@@H]2CSC(N2)[C@H](C(C)C)NC(=O)[C@@H](C(C)C)NC(=O)[C@H](C(C)C)NC1=O,132
7,CC(C)C[C@H]1NC(=O)[C@H](Cc2c3ccccc3cc3ccccc23)NC(=O)[C@@H](C(C)C)NC(=O)[C@@H]2CSC(N2)[C@H](C(C)C)NC(=O)[C@@H](C(C)C)NC(=O)[C@H](C(C)C)NC1=O,7.4
8,C#CC[C@H]1NC(=O)[C@H](Cc2c[nH]c3ccccc23)NC(=O)[C@@H](C(C)C)NC(=O)[C@@H]2CSC(N2)[C@H](C(C)C)NC(=O)[C@@H](Cc2c[nH]c3ccccc23)NC(=O)[C@H](C(C)C)NC1=O,58.8
9,CC(C)C[C@H]1NC(=O)[C@H](Cc2cccc3ccccc23)NC(=O)[C@@H](C(C)C)NC(=O)[C@@H]2CSC(N2)[C@H](C(C)C)NC(=O)[C@@H](C(C)C)NC(=O)[C@H](C(C)C)NC1=O,7.9
10,CC(C)C[C@H]1NC(=O)[C@H](Cc2cccs2)NC(=O)[C@@H](C(C)C)NC(=O)[C@@H]2CSC(N2)[C@H](C(C)C)NC(=O)[C@@H](C(C)C)NC(=O)[C@H](C(C)C)NC1=O,134
11,CC(C)C[C@H]1NC(=O)[C@H](Cc2cccc([N+](=O)[O-])c2)NC(=O)[C@@H](C(C)C)NC(=O)[C@@H]2CSC(N2)[C@H](C(C)C)NC(=O)[C@@H](C(C)C)NC(=O)[C@H](C(C)C)NC1=O,127
12,CC(C)C[C@@H]1NC(=O)[C@@H](C(C)C)NC(=O)[C@H](C(C)C)NC(=O)[C@@H](C(C)C)NC(=O)[C@@H]2CSC(N2)[C@H](C(C)C)NC(=O)[C@@H](Cc2c[nH]c3ccccc23)NC1=O,8
13,C=CC[C@H]1NC(=O)[C@@H]2CSC(N2)[C@H](C(C)C)NC(=O)[C@@H](Cc2c[nH]c3ccccc23)NC(=O)[C@H](C(C)C)NC(=O)[C@@H](CC(C)C)NC(=O)[C@H](Cc2c[nH]c3ccccc23)NC1=O,14.4
14,CC(C)C[C@H]1NC(=O)[C@H](Cc2csc3ccccc23)NC(=O)[C@@H](C(C)C)NC(=O)[C@@H]2CSC(N2)[C@H](C(C)C)NC(=O)[C@@H](C(C)C)NC(=O)[C@H](C(C)C)NC1=O,15.6
15,CC[C@@H](C)[C@H]1NC(=O)[C@H](Cc2c[nH]c3ccccc23)NC(=O)[C@@H](C(C)C)NC(=O)[C@@H]2CSC(N2)[C@H](C(C)C)NC(=O)[C@@H](C(C)C)NC(=O)[C@H](C(C)C)NC1=O,14.4
16,CCC[C@H]1NC(=O)[C@@H]2CSC(N2)[C@H](C(C)C)NC(=O)[C@@H](C(C)C)NC(=O)[C@H](C(C)C)NC(=O)[C@@H](CC(C)C)NC(=O)[C@H](Cc2c[nH]c3ccccc23)NC1=O,16

row,Structure (SMILES),MIC [µM]
1,CC[C@H](C)[C@H]1NC(=O)[C@@H]2CSC(N2)[C@H](C(C)C)NC(=O)[C@@H](C(C)C)NC(=O)[C@H](C(C)C)NC(=O)[C@@H](CC(C)C)NC(=O)[C@H](Cc2c[nH]c3ccccc23)NC1=O,7.9
2,CC(C)C[C@H]1NC(=O)[C@H](Cc2ccc(O)c(O)c2)NC(=O)[C@@H](C(C)C)NC(=O)[C@@H]2CSC(N2)[C@H](C(C)C)NC(=O)[C@@H](C(C)C)NC(=O)[C@H](C(C)C)NC1=O,130
3,CC(C)C[C@H]1NC(=O)[C@H](Cc2cn(C)c3ccccc23)NC(=O)[C@@H](C(C)C)NC(=O)[C@@H]2CSC(N2)[C@H](C(C)C)NC(=O)[C@@H](C(C)C)NC(=O)[C@H](C(C)C)NC1=O,15.7
4,CC(C)C[C@H]1NC(=O)[C@H](Cc2cscn2)NC(=O)[C@@H](C(C)C)NC(=O)[C@@H]2CSC(N2)[C@H](C(C)C)NC(=O)[C@@H](C(C)C)NC(=O)[C@H](C(C)C)NC1=O,133
5,CSCC[C@H]1NC(=O)[C@@H]2CSC(N2)[C@H](C(C)C)NC(=O)[C@@H](Cc2c[nH]c3ccccc23)NC(=O)[C@H](C(C)C)NC(=O)[C@@H](CC(C)C)NC(=O)[C@H](Cc2c[nH]c3ccccc23)NC1=O,111
6,CC(C)C[C@H]1NC(=O)[C@H](Cc2ccc(C(=O)c3ccccc3)cc2)NC(=O)[C@@H](C(C)C)NC(=O)[C@@H]2CSC(N2)[C@H](C(C)C)NC(=O)[C@@H](C(C)C)NC(=O)[C@H](C(C)C)NC1=O,59
7,CC(C)C[C@H]1NC(=O)[C@H](Cc2c[nH]c3ccccc23)NC(=O)[C@@H](C(C)(C)C)NC(=O)[C@@H]2CSC(N2)[C@H](C(C)C)NC(=O)[C@@H](C(C)C)NC(=O)[C@H](C(C)C)NC1=O,31.4
8,CC(C)C[C@H]1NC(=O)[C@H](Cc2c[nH]c3ccccc23)NC(=O)[C@@H](C(C)C)NC(=O)[C@@H]2CSC(N2)[C@H](C(C)C)NC(=O)[C@@H](Cc2c[nH]c3ccccc23)NC(=O)[C@H](C(C)C)NC1=O,1.8
9,CC(C)C[C@H]1NC(=O)[C@H](C(c2ccccc2)c2ccccc2)NC(=O)[C@@H](C(C)C)NC(=O)[C@@H]2CSC(N2)[C@H](C(C)C)NC(=O)[C@@H](C(C)C)NC(=O)[C@H](C(C)C)NC1=O,61.1
10,CC(C)C[C@H]1NC(=O)[C@H](Cc2ccccc2)NC(=O)[C@@H](C(C)C)NC(=O)[C@@H]2CSC(N2)[C@H](C(C)C)NC(=O)[C@@H](C(C)C)NC(=O)[C@H](C(C)C)NC1=O,16.8
11,CC(C)C[C@H]1NC(=O)[C@H](Cc2ccncc2)NC(=O)[C@@H](C(C)C)NC(=O)[C@@H]2CSC(N2)[C@H](C(C)C)NC(=O)[C@@H](C(C)C)NC(=O)[C@H](C(C)C)NC1=O,134
12,CC(C)C[C@H]1NC(=O)[C@H](c2ccccc2)NC(=O)[C@@H](C(C)C)NC(=O)[C@@H]2CSC(N2)[C@H](C(C)C)NC(=O)[C@@H](C(C)C)NC(=O)[C@H](C(C)C)NC1=O,137
13,CC(C)C[C@H]1NC(=O)[C@@H]2CSC(N2)[C@H](C(C)C)NC(=O)[C@@H](C(C)C)NC(=O)[C@H](C(C)C)NC(=O)[C@@H](C(C)C)NC(=O)[C@H](Cc2c[nH]c3ccccc23)NC1=O,128
14,C#CC[C@@H]1NC(=O)[C@@H](C(C)C)NC(=O)[C@@H]2CSC(N2)[C@H](C(C)C)NC(=O)[C@@H](C(C)C)NC(=O)[C@H](C(C)C)NC(=O)[C@@H](CC(C)C)NC1=O,72.4
15,CC(C)[C@@H]1NC(=O)[C@@H](Cc2c[nH]c3ccccc23)NC(=O)[C@H](C(C)C)NC(=O)[C@@H](C(C)(C)C)NC(=O)[C@H](Cc2c[nH]c3ccccc23)NC(=O)[C@@H](C(C)C)NC(=O)[C@@H]2CSC1N2,28.8
16,CC(C)[C@@H]1NC(=O)[C@@H](Cc2c[nH]c3ccccc23)NC(=O)[C@H](C(C)C)NC(=O)[C@H]2CCCN2C(=O)[C@H](Cc2c[nH]c3ccccc23)NC(=O)[C@@H](C(C)C)NC(=O)[C@@H]2CSC1N2,117
